# Source: PubChem BioAssay AID256 (DTP/NCI, 2004)
# Several values for one entry are separate records, joined by “and”; a condition that tells them apart may be missing. Equal entries are not always repeated. Inconclusive results and toxic doses are left out.
# Tested on: CD2F1 mice, L1210 leukemia ip, survival T/C
# Experiment: NCI In Vivo Anticancer Drug Screen. Data for tumor model L1210 Leukemia (intraperitoneal) in CD2F1 (CDF1) mice
# Details: higher = longer survival
# Method in brief: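 In this screen, transplantable tumors were grown in mice given either the compound or its vehicle. Results were expressed as the treated measurement relative to the control measurement.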
# [1] = endpoint: mean survival time, dose: 100.0 mg/kg/injection, schedule: Q01DX009 (ip), vehicle: saline with Tween-80
# [2] = endpoint: mean survival time, dose: 100.0 mg/kg/injection, schedule: Q04DX003 (ip), vehicle: saline with Tween-80
# [3] = endpoint: mean survival time, dose: 200.0 mg/kg/injection, schedule: Q01DX009 (ip), vehicle: saline with Tween-80
# [4] = endpoint: mean survival time, dose: 200.0 mg/kg/injection, schedule: Q04DX003 (ip), vehicle: saline with Tween-80
# [5] = endpoint: mean survival time, dose: 400.0 mg/kg/injection, schedule: Q01DX009 (ip), vehicle: saline with Tween-80
# [6] = endpoint: mean survival time, dose: 400.0 mg/kg/injection, schedule: Q04DX003 (ip), vehicle: saline with Tween-80
# [7] = endpoint: mean survival time, dose: 25.0 mg/kg/injection, schedule: Q01DX009 (ip), vehicle: saline with Tween-80
# [8] = endpoint: mean survival time, dose: 25.0 mg/kg/injection, schedule: Q04DX002 (ip), vehicle: saline with Tween-80
# [9] = endpoint: mean survival time, dose: 50.0 mg/kg/injection, schedule: Q04DX002 (ip), vehicle: saline with Tween-80
# [10] = endpoint: mean survival time, dose: 100.0 mg/kg/injection, schedule: Q04DX002 (ip), vehicle: saline with Tween-80
# [11] = endpoint: mean survival time, dose: 200.0 mg/kg/injection, schedule: Q04DX002 (ip), vehicle: saline with Tween-80
# [12] = endpoint: mean survival time, dose: 50.0 mg/kg/injection, schedule: Q01DX009 (ip), vehicle: saline with Tween-80
structure (smiles),measurement,setting,value
Cc1c(C)c([N+](=O)[O-])c(Br)c(C)c1[N+](=O)[O-],T/C,[1],103 % of control
same,T/C,[2],95 % of control
same,T/C,[3],97 % of control
same,T/C,[4],88 % of control
same,T/C,[5],101 % of control
same,T/C,[6],87 % of control
CC1=NCC[N-]C(C)(C)CC(C)=NCC[N-]C(C)(C)C1.[Ni+2].[O-][Cl+3]([O-])([O-])O,T/C,"endpoint: mean survival time, dose: 100.0 mg/kg/injection, schedule: Q04DX003 (ip), vehicle: saline",96 % of control
same,T/C,"endpoint: mean survival time, dose: 200.0 mg/kg/injection, schedule: Q04DX003 (ip), vehicle: saline",97 % of control
CN(CC1CCCC1)C1CCCCC1,T/C,"endpoint: mean survival time, dose: 100.0 mg/kg/injection, schedule: Q01DX001 (ip), vehicle: saline",98 % of control
S=C(Nc1ccccc1)N1CCC(CCCC2CCN(C(=S)Nc3ccccc3)CC2)CC1,T/C,[2],91 % of control
same,T/C,[4],88 % of control
O=C(O)C[N-]c1ccccc1.O=C(O)C[N-]c1ccccc1.[Ni+2],T/C,[7],95 % of control
same,T/C,"endpoint: mean survival time, dose: 50.0 mg/kg/injection, schedule: Q04DX003 (ip), vehicle: saline with Tween-80",107 % of control
same,T/C,[2],106 % of control
CC[n+]1ccc(Nc2ccc(NC(=O)c3ccc(C(=O)Nc4ccc(Nc5cc[n+](CC)c(N)n5)cc4)cc3)cc2)nc1N,T/C,"endpoint: mean survival time, dose: 12.5 mg/kg/injection, schedule: Q01DX009 (ip), vehicle: saline",172 % of control
same,T/C,"endpoint: mean survival time, dose: 25.0 mg/kg/injection, schedule: Q01DX009 (ip), vehicle: saline",325 % of control
same,T/C,"endpoint: mean survival time, dose: 40.0 mg/kg/injection, schedule: Q01DX009 (ip), vehicle: saline",265 % of control
same,T/C,"endpoint: mean survival time, dose: 50.0 mg/kg/injection, schedule: Q01DX009 (ip), vehicle: saline",275 % of control
same,T/C,"endpoint: mean survival time, dose: 59.0 mg/kg/injection, schedule: Q01DX009 (ip), vehicle: saline",262 % of control
same,T/C,"endpoint: mean survival time, dose: 89.0 mg/kg/injection, schedule: Q01DX009 (ip), vehicle: saline",212 % of control
same,T/C,"endpoint: mean survival time, dose: 150.0 mg/kg/injection, schedule: Q01DX001 (ip), vehicle: Klucel (hydroxypropylcellulose) (HPC)",167 % of control
same,T/C,"endpoint: mean survival time, dose: 200.0 mg/kg/injection, schedule: Q01DX009 (ip), vehicle: saline",118 % of control
same,T/C,"endpoint: mean survival time, dose: 225.0 mg/kg/injection, schedule: Q01DX001 (ip), vehicle: Klucel (hydroxypropylcellulose) (HPC)",315 % of control
C=C(c1cn(C(C)=O)c2ccccc12)c1cn(C(C)=O)c2ccccc12,T/C,[1],95 % of control
same,T/C,[3],96 % of control
same,T/C,[5],98 % of control
COC1OC(CN2C(=O)c3ccccc3C2=O)C2OC(C)(C)OC12 (centres undefined),T/C,[1],98 % of control
same,T/C,[3],94 % of control
same,T/C,[5],98 % of control
CCCN(CCC)N=Nc1ccccc1,T/C,"endpoint: mean survival time, dose: 75.0 mg/kg/injection, schedule: Q01DX001 (ip), vehicle: saline",104 % of control
same,T/C,"endpoint: mean survival time, dose: 150.0 mg/kg/injection, schedule: Q01DX001 (ip), vehicle: saline",101 % of control
COc1ccc(CCNC(=S)NN)cc1OC,T/C,[8],106 % of control
same,T/C,[9],95 % of control
same,T/C,[10],114 % of control
same,T/C,[11],103 % of control
CCCCCCCC(O)CCCCCCC,T/C,"endpoint: mean survival time, dose: 100.0 mg/kg/injection, schedule: Q01DX009 (ip), vehicle: other",101 % of control
same,T/C,"endpoint: mean survival time, dose: 100.0 mg/kg/injection, schedule: Q04DX003 (ip), vehicle: other",95 % of control
same,T/C,"endpoint: mean survival time, dose: 200.0 mg/kg/injection, schedule: Q01DX009 (ip), vehicle: other",98 % of control
same,T/C,"endpoint: mean survival time, dose: 200.0 mg/kg/injection, schedule: Q04DX003 (ip), vehicle: other",97 % of control
same,T/C,"endpoint: mean survival time, dose: 400.0 mg/kg/injection, schedule: Q01DX009 (ip), vehicle: other",95 % of control
same,T/C,"endpoint: mean survival time, dose: 400.0 mg/kg/injection, schedule: Q04DX003 (ip), vehicle: other",100 % of control
CN(C)c1ccc2c(NCCCCCCNc3ccnc4cc(N(C)C)ccc34)ccnc2c1,T/C,"endpoint: median survival time, dose: 1.56 mg/kg/injection, schedule: Q01DX009 (ip), vehicle: distilled water + Tween-80 + alcohol",105 % of control
same,T/C,"endpoint: median survival time, dose: 3.12 mg/kg/injection, schedule: Q01DX009 (ip), vehicle: distilled water + Tween-80 + alcohol",104 % of control
same,T/C,"endpoint: median survival time, dose: 6.25 mg/kg/injection, schedule: Q01DX009 (ip), vehicle: distilled water + Tween-80 + alcohol",111 % of control
COc1cccc2c1[C@H]1CO[C@H]3C4C[C@H](C(=O)O)C([C@@H](C2)N13)N4C (some centres undefined),T/C,"endpoint: median survival time, dose: 0.31 mg/kg/injection, schedule: Q01DX005 (ip), vehicle: water",90 % of control
same,T/C,"endpoint: median survival time, dose: 0.62 mg/kg/injection, schedule: Q01DX005 (ip), vehicle: water",101 % of control
same,T/C,"endpoint: median survival time, dose: 1.25 mg/kg/injection, schedule: Q01DX005 (ip), vehicle: water",102 % of control
same,T/C,"endpoint: median survival time, dose: 2.5 mg/kg/injection, schedule: Q01DX005 (ip), vehicle: water",112 % of control
same,T/C,"endpoint: median survival time, dose: 5.0 mg/kg/injection, schedule: Q01DX005 (ip), vehicle: water",121 % of control
O=C(O)/C=C/C(=O)NCc1ccccc1,T/C,[1],104 % of control
same,T/C,[3],94 % of control
same,T/C,[5],98 % of control
CC1c2ccc3ccccc3c2C(=O)c2cccc(Cl)c21 (centres undefined),T/C,"endpoint: median survival time, dose: 50.0 mg/kg/injection, schedule: Q04DX002 (ip), vehicle: saline with Tween-80",100 % of control
same,T/C,"endpoint: median survival time, dose: 100.0 mg/kg/injection, schedule: Q04DX002 (ip), vehicle: saline with Tween-80",100 % of control
same,T/C,"endpoint: median survival time, dose: 200.0 mg/kg/injection, schedule: Q04DX002 (ip), vehicle: saline with Tween-80",111 % of control
same,T/C,"endpoint: median survival time, dose: 400.0 mg/kg/injection, schedule: Q04DX002 (ip), vehicle: saline with Tween-80",88 % of control
CCCCCCCCCC(=O)NC(=S)Nc1cccc(C(C)=O)c1,T/C,"endpoint: mean survival time, dose: 100.0 mg/kg/injection, schedule: Q01DX001 (ip), vehicle: saline with Tween-80",89 % of control
same,T/C,[1],87 % of control and 95 % of control
same,T/C,[10],88 % of control and 104 % of control
same,T/C,[2],93 % of control
same,T/C,"endpoint: mean survival time, dose: 200.0 mg/kg/injection, schedule: Q01DX001 (ip), vehicle: saline with Tween-80",88 % of control
same,T/C,[3],91 % of control and 109 % of control
same,T/C,[11],92 % of control and 96 % of control
same,T/C,[4],91 % of control
same,T/C,[5],95 % of control
same,T/C,"endpoint: mean survival time, dose: 400.0 mg/kg/injection, schedule: Q04DX002 (ip), vehicle: saline with Tween-80",88 % of control and 90 % of control
same,T/C,[6],95 % of control
O=c1[nH]c(=O)n(C2CC(O)C(CO)O2)cc1CN1CCCC1 (centres undefined),T/C,"endpoint: mean survival time, dose: 6.25 mg/kg/injection, schedule: Q01DX005 (ip), vehicle: water",95 % of control
same,T/C,"endpoint: mean survival time, dose: 12.5 mg/kg/injection, schedule: Q01DX005 (ip), vehicle: water",109 % of control
same,T/C,"endpoint: mean survival time, dose: 25.0 mg/kg/injection, schedule: Q01DX005 (ip), vehicle: water",87 % of control
same,T/C,"endpoint: mean survival time, dose: 50.0 mg/kg/injection, schedule: Q01DX005 (ip), vehicle: water",102 % of control
same,T/C,"endpoint: mean survival time, dose: 100.0 mg/kg/injection, schedule: Q01DX005 (ip), vehicle: water",102 % of control
same,T/C,"endpoint: mean survival time, dose: 200.0 mg/kg/injection, schedule: Q01DX005 (ip), vehicle: water",96 % of control
same,T/C,"endpoint: mean survival time, dose: 400.0 mg/kg/injection, schedule: Q01DX005 (ip), vehicle: water",96 % of control
CNS(=O)(=O)c1ccc2c(c1)[nH]c(=S)n2C,T/C,[1],97 % of control
same,T/C,[2],96 % of control
same,T/C,[3],93 % of control
same,T/C,[4],92 % of control
same,T/C,[5],93 % of control
same,T/C,[6],90 % of control
CCOC(=O)CCC(C)(C#N)c1ccccc1 (centres undefined),T/C,[7],96 % of control
same,T/C,[12],93 % of control
same,T/C,[1],98 % of control
O=C(CNC(=O)Nc1cccc([N+](=O)[O-])c1)N/N=C/c1cc(Br)ccc1O,T/C,[12],92 % of control
same,T/C,[1],88 % of control
same,T/C,[3],88 % of control
CCC1=C/C(=C\c2ccc3c(c2)OCO3)C(=O)S1,T/C,[8],93 % of control
same,T/C,[9],89 % of control
same,T/C,[10],93 % of control
CC(CCC(C)(C)O)C1CCC2C3C(O)CC4CCCCC4(C)C3CC(O)C12C (centres undefined),T/C,[6],88 % of control
CNCC(=O)NCCCCCCCCCCNC(=O)CNC,T/C,"endpoint: mean survival time, dose: 12.5 mg/kg/injection, schedule: Q01DX010 (ip), vehicle: saline",100 % of control
same,T/C,"endpoint: mean survival time, dose: 25.0 mg/kg/injection, schedule: Q01DX010 (ip), vehicle: saline",101 % of control
same,T/C,"endpoint: mean survival time, dose: 50.0 mg/kg/injection, schedule: Q01DX010 (ip), vehicle: saline",97 % of control
same,T/C,"endpoint: mean survival time, dose: 100.0 mg/kg/injection, schedule: Q01DX010 (ip), vehicle: saline",95 % of control
